Peptide text beside a SMILES is read from it.
Columns and labels:
[1] = system: E. coli strain 14443 (MG1655 (FB426)); type: cell-based
[2] = system: E. coli strain 14444 (MG1655 xylA); type: cell-based
[3] = system: E. coli strain 14445 (MG1655 himA); type: cell-based
[4] = system: E. coli 287 (ATCC #11775); type: cell-based
S. typhimurium pyrCΔ73 = type: cell-based, Salmonella typhimurium
T. harzianum DAOM 190830 = type: cell-based, Trichoderma harzianum
E. coli MG1655 [5] = type: cell-based
E. coli MG1655 [6] = type: cell-based; remark: listed apart in the source
[7] = system: E. coli strain 11547 (O157:H7); type: cell-based
[8] = system: E. coli strain 13671 (O157:H? gur+); type: cell-based
[9] = system: E. coli strain 13673 (O157); type: cell-based
[10] = system: E. coli strain 13675 (O157); type: cell-based

O=C[C@H](O)[C@@H](O)[C@H](O)CO [D-xylose]
carbon source utilization, in words [1]: positive | carbon source utilization, in words [2]: negative

CCC(=O)O [Propionic acid]
carbon source utilization, in words [3]: negative | carbon source utilization result [4]: positive

O=c1ccn([C@H]2C[C@H](O)[C@@H](CO)O2)c(=O)[nH]1 [2-deoxyuridine]
growth stimulation by supplement (well color) (S. typhimurium pyrCΔ73): turned purple

Nc1ccn([C@H]2C[C@H](O)[C@@H](CO)O2)c(=O)n1 [2-deoxycytidine]
growth stimulation by supplement (well color) (S. typhimurium pyrCΔ73): turned purple

CCC(=O)C(=O)O [α-ketobutyric acid]
carbon source utilization, in words [3]: negative | carbon source utilization result [4]: positive

COC(=O)C(C)=O [Methyl pyruvate]
carbon source utilization result [4]: positive | carbon source utilization result (T. harzianum DAOM 190830): positive

CC(=O)N[C@H]1C(O)O[C@H](CO)[C@@H](O)[C@@H]1O (stereo partly drawn) [N-acetyl-D-glucosamine]
carbon source utilization result [4]: positive | carbon source utilization result (T. harzianum DAOM 190830): positive | suitability as nitrogen source (growth, purple color) (E. coli MG1655 [5]): positive

Nc1nc2c(ncn2[C@@H]2O[C@H](CO)[C@@H](O)[C@H]2OP(=O)(O)O)c(=O)[nH]1 [guanosine 2′-monophosphate]
suitability as phosphorus source (growth, purple color) (E. coli MG1655 [6]): positive | growth stimulation by supplement (well color) (S. typhimurium pyrCΔ73): turned weakly purple

gentiobiose
carbon source utilization result [4]: positive/negative | carbon source utilization result (T. harzianum DAOM 190830): positive

Nc1ncnc2c1ncn2[C@@H]1O[C@H](COP(=O)(O)O)[C@@H](O)[C@H]1O [adenosine 5′-monophosphate]
suitability as phosphorus source (growth, purple color) (E. coli MG1655 [6]): not suitable | growth stimulation by supplement (well color) (S. typhimurium pyrCΔ73): turned weakly purple

N[C@@H](Cc1ccccc1)C(=O)O [L-phenylalanine]
carbon source utilization result [4]: positive/negative | carbon source utilization result (T. harzianum DAOM 190830): positive | suitability as nitrogen source (growth, purple color) (E. coli MG1655 [5]): not suitable

OC[C@@H](O)[C@@H](O)[C@H](O)[C@@H](O)CO [D-sorbitol]
carbon source utilization, in words [7]: negative | carbon source utilization, in words [8]: negative | carbon source utilization, in words [9]: negative | carbon source utilization, in words [10]: negative | carbon source utilization result [4]: positive | carbon source utilization result (T. harzianum DAOM 190830): positive

O=C(O)CO [Glycolic acid]
carbon source utilization, in words [3]: negative

dextrin
carbon source utilization result [4]: positive | carbon source utilization result (T. harzianum DAOM 190830): positive

Nc1cc[nH]c(=O)n1 [cytosine]
suitability as nitrogen source (growth, purple color) (E. coli MG1655 [5]): not suitable | growth stimulation by supplement (well color) (S. typhimurium pyrCΔ73): turned purple

Nc1ccn([C@@H]2O[C@H](CO)[C@@H](O)[C@H]2OP(=O)(O)O)c(=O)n1 [cytidine 2′-monophosphate]
suitability as phosphorus source (growth, purple color) (E. coli MG1655 [6]): not suitable | growth stimulation by supplement (well color) (S. typhimurium pyrCΔ73): turned purple

O=C[C@H](O)[C@@H](O)[C@@H](O)[C@H](O)CO [D-galactose]
carbon source utilization result [4]: positive | carbon source utilization result (T. harzianum DAOM 190830): positive

O=C1CC[C@@H](C(=O)O)N1 [L-pyroglutamic acid]
carbon source utilization result [4]: positive/negative | carbon source utilization result (T. harzianum DAOM 190830): positive | suitability as nitrogen source (growth, purple color) (E. coli MG1655 [5]): not suitable

O=C(CO)[C@@H](O)[C@H](O)[C@H](O)CO [D-fructose]
carbon source utilization result [4]: positive | carbon source utilization result (T. harzianum DAOM 190830): positive

O=c1cc[nH]c(=O)[nH]1 [uracil]
suitability as nitrogen source (growth, purple color) (E. coli MG1655 [5]): not suitable | growth stimulation by supplement (well color) (S. typhimurium pyrCΔ73): turned purple

C[C@H](O)[C@@H](O)[C@@H](O)[C@H](O)C=O [L-fucose]
carbon source utilization result [4]: positive | carbon source utilization result (T. harzianum DAOM 190830): positive

OC[C@H]1O[C@H](O)[C@H](O)[C@@H](O)[C@@H]1O [α-D-glucose]
carbon source utilization result [4]: positive | carbon source utilization result (T. harzianum DAOM 190830): positive

O=C(O)[C@]1(O)C[C@@H](O)[C@@H](O)[C@H](O)C1 [quinic acid]
carbon source utilization result [4]: negative | carbon source utilization result (T. harzianum DAOM 190830): positive

Nc1ccn([C@@H]2O[C@H](CO)[C@@H](O)[C@H]2O)c(=O)n1 [cytidine]
growth stimulation by supplement (well color) (S. typhimurium pyrCΔ73): turned purple

O=C[C@H](O)[C@@H](O)[C@@H](O)CO [L-arabinose]
carbon source utilization result [4]: positive | carbon source utilization result (T. harzianum DAOM 190830): positive

Nc1nc2nc[nH]c2c(=O)[nH]1 [guanine]
growth stimulation by supplement (well color) (S. typhimurium pyrCΔ73): turned weakly purple

Nc1ccn([C@@H]2O[C@H](COP(=O)(O)O)[C@@H](O)[C@H]2O)c(=O)n1 [cytidine 5′-monophosphate]
suitability as phosphorus source (growth, purple color) (E. coli MG1655 [6]): positive | growth stimulation by supplement (well color) (S. typhimurium pyrCΔ73): turned purple

Nc1ccn([C@@H]2O[C@H](CO)[C@@H](OP(=O)(O)O)[C@H]2O)c(=O)n1 [cytidine 3′-monophosphate]
suitability as phosphorus source (growth, purple color) (E. coli MG1655 [6]): positive | growth stimulation by supplement (well color) (S. typhimurium pyrCΔ73): turned purple

O=C[C@H](O)[C@@H](O)[C@H](O[C@@H]1O[C@H](CO)[C@@H](O)[C@H](O)[C@H]1O)[C@H](O)CO [Cellobiose]
carbon source utilization result [4]: negative | carbon source utilization result (T. harzianum DAOM 190830): positive

O=C(O)CCC(=O)O [Succinic acid]
carbon source utilization result [4]: positive | carbon source utilization result (T. harzianum DAOM 190830): positive

NCC(=O)N[C@@H](CCC(=O)O)C(=O)O [Glycyl-L-glutamic acid] (H-Gly-Glu-OH)
carbon source utilization result [4]: positive | carbon source utilization result (T. harzianum DAOM 190830): positive | suitability as nitrogen source (growth, purple color) (E. coli MG1655 [5]): positive

OC[C@H]1O[C@H](O[C@H]2[C@H](O)[C@@H](O)[C@H](O)O[C@@H]2CO)[C@H](O)[C@@H](O)[C@@H]1O [Maltose]
carbon source utilization, in words [2]: negative | carbon source utilization, in words [3]: negative | carbon source utilization result [4]: positive

OC[C@@H](O)[C@@H](O)[C@H](O)[C@H](O)CO [D-mannitol]
carbon source utilization result [4]: positive | carbon source utilization result (T. harzianum DAOM 190830): positive

O=C(O)CCCCCCCCC(=O)O [sebacic acid]
carbon source utilization result [4]: negative | carbon source utilization result (T. harzianum DAOM 190830): positive

O=C[C@H](O)[C@@H](O)[C@@H](O)[C@H](O)C(=O)O [D-galacturonic acid]
carbon source utilization result [4]: positive | carbon source utilization result (T. harzianum DAOM 190830): positive

OCC(O)CO [Glycerol]
carbon source utilization result [4]: positive | carbon source utilization result (T. harzianum DAOM 190830): positive

Nc1nc2c(ncn2[C@H]2C[C@H](O)[C@@H](CO)O2)c(=O)[nH]1 [2′deoxyguanosine]
growth stimulation by supplement (well color) (S. typhimurium pyrCΔ73): turned weakly purple

O=c1ccn([C@@H]2O[C@H](CO)[C@@H](O)[C@H]2O)c(=O)[nH]1 [Uridine]
carbon source utilization result [4]: positive | suitability as nitrogen source (growth, purple color) (E. coli MG1655 [5]): not suitable | growth stimulation by supplement (well color) (S. typhimurium pyrCΔ73): turned purple

O=C(O)CC(O)(CC(=O)O)C(=O)O [Citric acid]
carbon source utilization result [4]: negative | carbon source utilization result (T. harzianum DAOM 190830): positive

C[C@H](N)C(=O)NCC(=O)O [L-alanyl-glycine] (H-Ala-Gly-OH)
carbon source utilization result [4]: positive | carbon source utilization result (T. harzianum DAOM 190830): positive | suitability as nitrogen source (growth, purple color) (E. coli MG1655 [5]): positive

CC(O)CC(=O)O (stereo not drawn) [β-hydroxybutyric acid]
carbon source utilization result [4]: negative | carbon source utilization result (T. harzianum DAOM 190830): positive

O=C(O)CC(Br)C(=O)O (stereo not shown) [Bromo succinic acid]
carbon source utilization result [4]: positive | carbon source utilization result (T. harzianum DAOM 190830): positive

Nc1ncnc2c1ncn2[C@H]1C[C@H](O)[C@@H](CO)O1 [2′-deoxy-adenosine]
growth stimulation by supplement (well color) (S. typhimurium pyrCΔ73): turned weakly purple

O=C(O)[C@@H](O)[C@@H](O)[C@H](O)[C@@H](O)C(=O)O [D-saccharic acid]
carbon source utilization, in words [7]: negative | carbon source utilization, in words [8]: negative | carbon source utilization, in words [9]: negative | carbon source utilization, in words [10]: negative

CCC(O)C(=O)O (stereo not drawn) [α-hydroxy butyric acid]
carbon source utilization, in words [3]: negative

OC[C@@H](O)C(O)[C@H](O)CO [D-arabitol]
carbon source utilization result [4]: negative | carbon source utilization result (T. harzianum DAOM 190830): positive
